Assay results as given in patent US20260365670A1, “EGFR INHIBITORS AND USES THEREOF” (DIZAL (JIANGSU) PHARMACEUTICAL CO., LTD., priority 2022, published 2026).
Like-named read-outs stand apart in the source and are kept apart here.

Key:
[1] = test system: PC-9; assay: Cell proliferation assay, PC-9 cells (CellTiter-Glo, 72 hours); type: cell-based; settings: PC9 cells, CellTiter-Glo, read-out: PC9 GI50
How it was run: (§1)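 Seed Ba/F3 at 5000 cells/well and PC-9 at 500 cells/well (10% FBS RPMI1640); incubate overnight; add compound dilution series; read a G0 plate; incubate; read G3; GI50 from best-fit curve.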

[2] = target: T1, EGFR[T790M/C797S/d746-750] (Homo sapiens, UniProt P00533, C797S/DEL746-750/T790M); assay: Inhibition of EGFR[T790M/C797S/d746-750] biochemical enzymatic activity (HTRF); settings: EGFR T790M-C797S-Del19, 1 mM ATP, 1 h, room temperature, read-out: IC50 (nM) @T790M - C797S - Del19
T1 construct: purchased Carna Bio
How it was run: (§2)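 1 mM ATP, 1 μM biotin-TK peptide, 5 mM MgCl2, 1 mM MnCl2, 0.01% CHAPS, 1 mM DTT, 0.5% DMSO; 1 h RT; EDTA stop; HTRF 665/615 nm; IC50 via 4PL.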

[3] = test system: A-431; assay: Cell proliferation GI50, A-431 cells (Table 6); type: cell-based
[4] = target: T2, EGFR (d746-750 C797S) (Homo sapiens, UniProt P00533, C797S/DEL746-750); assay: Inhibition of EGFR (d746-750 C797S) biochemical enzymatic activity (HTRF); settings: EGFR Del19-C797S, 1 mM ATP, 1 h, room temperature, read-out: IC50 (nM) @Del19-C797S
T2 construct: purchased signalchem
T2 sequence (P00533 with tags, fused parts or gaps DEL746-750/C797S limits assumed): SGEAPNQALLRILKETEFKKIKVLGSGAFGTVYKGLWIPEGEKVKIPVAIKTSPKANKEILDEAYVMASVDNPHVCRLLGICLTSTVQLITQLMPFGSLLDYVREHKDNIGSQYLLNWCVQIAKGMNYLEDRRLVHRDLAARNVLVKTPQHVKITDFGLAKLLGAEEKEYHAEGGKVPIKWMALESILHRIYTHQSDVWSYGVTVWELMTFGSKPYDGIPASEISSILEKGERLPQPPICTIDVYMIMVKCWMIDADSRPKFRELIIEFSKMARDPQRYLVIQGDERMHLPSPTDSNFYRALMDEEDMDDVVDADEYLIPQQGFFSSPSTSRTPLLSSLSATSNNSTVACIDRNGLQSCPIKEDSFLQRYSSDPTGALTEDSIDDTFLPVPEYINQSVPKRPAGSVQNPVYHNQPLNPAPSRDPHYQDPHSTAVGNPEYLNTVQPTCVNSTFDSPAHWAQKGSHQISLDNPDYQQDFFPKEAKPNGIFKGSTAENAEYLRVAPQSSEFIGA
How it was run: as §2

[5] = target: T3, EGFR[T790M/C797S/L858R] (Homo sapiens, UniProt P00533, C797S/L858R/T790M); assay: Inhibition of EGFR[T790M/C797S/L858R] biochemical enzymatic activity (HTRF); settings: EGFR T790M-C797S-L858R, 1 mM ATP, 1 h, room temperature, read-out: IC50 (nM) @T790M- C797S - L858R
T3 construct: purchased Carna Bio
T3 sequence (P00533 25-1210 T790M/C797S/L858R): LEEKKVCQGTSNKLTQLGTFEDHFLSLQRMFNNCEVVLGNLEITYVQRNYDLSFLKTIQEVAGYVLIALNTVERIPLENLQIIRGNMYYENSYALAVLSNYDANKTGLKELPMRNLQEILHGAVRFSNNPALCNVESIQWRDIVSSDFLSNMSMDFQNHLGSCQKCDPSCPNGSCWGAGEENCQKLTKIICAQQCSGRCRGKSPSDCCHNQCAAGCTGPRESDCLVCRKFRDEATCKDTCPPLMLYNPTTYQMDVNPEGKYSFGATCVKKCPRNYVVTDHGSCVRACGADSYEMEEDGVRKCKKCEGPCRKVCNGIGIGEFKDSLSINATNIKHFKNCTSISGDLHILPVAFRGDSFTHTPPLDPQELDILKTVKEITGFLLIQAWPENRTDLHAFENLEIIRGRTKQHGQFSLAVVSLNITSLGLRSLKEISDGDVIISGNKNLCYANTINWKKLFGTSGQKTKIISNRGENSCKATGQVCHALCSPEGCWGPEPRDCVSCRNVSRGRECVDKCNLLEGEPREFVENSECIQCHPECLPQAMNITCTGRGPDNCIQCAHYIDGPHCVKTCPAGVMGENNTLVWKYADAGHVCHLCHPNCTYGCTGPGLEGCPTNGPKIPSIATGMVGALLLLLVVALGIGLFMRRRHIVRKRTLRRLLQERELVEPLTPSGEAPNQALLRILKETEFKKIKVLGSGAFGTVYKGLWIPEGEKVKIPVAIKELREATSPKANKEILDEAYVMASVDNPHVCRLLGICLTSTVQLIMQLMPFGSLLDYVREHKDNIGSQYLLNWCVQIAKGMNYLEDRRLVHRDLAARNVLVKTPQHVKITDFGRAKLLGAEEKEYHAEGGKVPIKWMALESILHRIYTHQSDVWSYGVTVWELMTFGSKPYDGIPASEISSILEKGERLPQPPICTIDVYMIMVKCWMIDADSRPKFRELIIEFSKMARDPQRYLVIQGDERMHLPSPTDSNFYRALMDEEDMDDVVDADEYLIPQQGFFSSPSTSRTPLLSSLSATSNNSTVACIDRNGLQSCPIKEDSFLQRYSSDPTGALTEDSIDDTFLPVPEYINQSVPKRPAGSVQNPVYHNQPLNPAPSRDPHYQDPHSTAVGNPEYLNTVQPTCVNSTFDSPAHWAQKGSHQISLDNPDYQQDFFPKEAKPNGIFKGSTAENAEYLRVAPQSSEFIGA
How it was run: as §2

[6] = target: T4, EGFR wild type (Homo sapiens, UniProt P00533); assay: Inhibition of EGFR wild type biochemical enzymatic activity (HTRF); settings: EGFR WT, 1 mM ATP, 1 h, room temperature, read-out: IC50 (nM) @WT
T4 construct: purchased Carna Bio
T4 sequence (P00533 25-1210): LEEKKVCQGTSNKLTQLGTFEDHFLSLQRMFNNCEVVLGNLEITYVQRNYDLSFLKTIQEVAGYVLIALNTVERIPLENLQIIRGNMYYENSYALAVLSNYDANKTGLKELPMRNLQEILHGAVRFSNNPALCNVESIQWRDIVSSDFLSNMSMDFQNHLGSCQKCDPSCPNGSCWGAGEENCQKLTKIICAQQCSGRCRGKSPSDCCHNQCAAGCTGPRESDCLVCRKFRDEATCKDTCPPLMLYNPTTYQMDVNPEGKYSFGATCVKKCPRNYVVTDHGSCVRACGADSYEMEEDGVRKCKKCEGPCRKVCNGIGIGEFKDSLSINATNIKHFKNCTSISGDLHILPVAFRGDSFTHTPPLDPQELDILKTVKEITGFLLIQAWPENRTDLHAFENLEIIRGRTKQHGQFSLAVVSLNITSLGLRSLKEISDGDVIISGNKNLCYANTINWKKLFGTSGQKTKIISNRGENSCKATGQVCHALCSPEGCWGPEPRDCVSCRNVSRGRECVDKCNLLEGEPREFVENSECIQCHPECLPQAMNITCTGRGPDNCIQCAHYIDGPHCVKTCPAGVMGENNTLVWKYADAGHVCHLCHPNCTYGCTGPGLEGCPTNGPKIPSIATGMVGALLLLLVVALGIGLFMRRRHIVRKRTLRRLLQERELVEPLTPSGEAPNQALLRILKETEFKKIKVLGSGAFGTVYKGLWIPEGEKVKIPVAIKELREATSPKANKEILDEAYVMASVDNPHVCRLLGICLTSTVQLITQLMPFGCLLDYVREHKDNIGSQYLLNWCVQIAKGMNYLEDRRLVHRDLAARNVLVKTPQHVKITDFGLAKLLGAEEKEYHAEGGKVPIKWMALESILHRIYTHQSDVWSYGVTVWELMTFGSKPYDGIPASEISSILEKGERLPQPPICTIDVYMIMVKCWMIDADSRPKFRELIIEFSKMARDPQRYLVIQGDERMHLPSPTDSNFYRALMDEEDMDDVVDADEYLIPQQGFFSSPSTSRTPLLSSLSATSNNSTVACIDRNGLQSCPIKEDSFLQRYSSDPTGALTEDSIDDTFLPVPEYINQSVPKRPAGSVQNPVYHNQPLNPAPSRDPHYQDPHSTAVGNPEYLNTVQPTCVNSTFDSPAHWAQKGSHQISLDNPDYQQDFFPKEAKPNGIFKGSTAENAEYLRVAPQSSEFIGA
How it was run: as §2

[7] = test system: Ba/F3 cells expressing EGFR mutations; assay: Cell proliferation assay, Ba/F3 cells expressing EGFR mutations (CellTiter-Glo, 72 hours); type: cell-based; settings: CellTiter-Glo
How it was run: as §1

[8] = target: T5, EGFR (C797S L858R) (Homo sapiens, UniProt P00533, C797S/L858R); assay: Inhibition of EGFR (C797S L858R) biochemical enzymatic activity (HTRF); settings: EGFR L858-C797S, 1 mM ATP, 1 h, room temperature, read-out: IC50 (nM) @L858-C797S
T5 construct: purchased signalchem
How it was run: as §2

[9] = target: T6, EGFR L858R/T790M (Homo sapiens, UniProt P00533, L858R/T790M); assay: Inhibition of EGFR L858R/T790M biochemical enzymatic activity (HTRF); settings: EGFR L858R-T790M, 1 mM ATP, 1 h, room temperature, read-out: IC50 (nM) @L858R-T790M
T6 construct: purchased Carna Bio
How it was run: as §2

[10] = target: T7, EGFR Exon19Del/T790M (Homo sapiens, UniProt P00533, DEL746-750/T790M); assay: Inhibition of EGFR Exon19Del/T790M biochemical enzymatic activity (HTRF); settings: EGFR Del19-T790M, 1 mM ATP, 1 h, room temperature, read-out: IC50 (nM) @Del19-T790M
T7 construct: purchased Carna Bio
T7 sequence (P00533 with tags, fused parts or gaps DEL746-750/T790M limits assumed): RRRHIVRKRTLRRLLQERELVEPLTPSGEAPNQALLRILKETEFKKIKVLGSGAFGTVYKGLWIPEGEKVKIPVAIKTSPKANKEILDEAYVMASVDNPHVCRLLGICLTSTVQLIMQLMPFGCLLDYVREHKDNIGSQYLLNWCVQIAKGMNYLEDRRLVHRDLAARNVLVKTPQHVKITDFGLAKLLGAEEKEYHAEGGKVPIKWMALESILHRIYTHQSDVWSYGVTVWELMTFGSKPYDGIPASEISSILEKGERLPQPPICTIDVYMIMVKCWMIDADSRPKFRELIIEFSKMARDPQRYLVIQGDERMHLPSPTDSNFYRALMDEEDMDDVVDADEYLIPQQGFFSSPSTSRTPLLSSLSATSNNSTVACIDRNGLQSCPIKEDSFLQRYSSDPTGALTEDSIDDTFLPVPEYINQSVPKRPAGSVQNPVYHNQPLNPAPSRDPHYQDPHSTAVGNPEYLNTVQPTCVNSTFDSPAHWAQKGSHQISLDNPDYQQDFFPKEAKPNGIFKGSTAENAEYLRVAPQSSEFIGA
How it was run: as §2

[11] = target: T8, EGFR Exon19Del (Homo sapiens, UniProt P00533, DEL746-750); assay: Inhibition of EGFR Exon19Del biochemical enzymatic activity (HTRF); settings: EGFR Del19, 1 mM ATP, 1 h, room temperature, read-out: IC50 @Del19
T8 construct: purchased Carna Bio
How it was run: as §2

[12] = target: T9, EGFR L858R (Homo sapiens, UniProt P00533, L858R); assay: Inhibition of EGFR L858R biochemical enzymatic activity (HTRF); settings: 1 mM ATP, 1 h, room temperature, read-out: IC50 (nM) @L858R
T9 construct: purchased Carna Bio
T9 sequence (P00533 25-1210 L858R): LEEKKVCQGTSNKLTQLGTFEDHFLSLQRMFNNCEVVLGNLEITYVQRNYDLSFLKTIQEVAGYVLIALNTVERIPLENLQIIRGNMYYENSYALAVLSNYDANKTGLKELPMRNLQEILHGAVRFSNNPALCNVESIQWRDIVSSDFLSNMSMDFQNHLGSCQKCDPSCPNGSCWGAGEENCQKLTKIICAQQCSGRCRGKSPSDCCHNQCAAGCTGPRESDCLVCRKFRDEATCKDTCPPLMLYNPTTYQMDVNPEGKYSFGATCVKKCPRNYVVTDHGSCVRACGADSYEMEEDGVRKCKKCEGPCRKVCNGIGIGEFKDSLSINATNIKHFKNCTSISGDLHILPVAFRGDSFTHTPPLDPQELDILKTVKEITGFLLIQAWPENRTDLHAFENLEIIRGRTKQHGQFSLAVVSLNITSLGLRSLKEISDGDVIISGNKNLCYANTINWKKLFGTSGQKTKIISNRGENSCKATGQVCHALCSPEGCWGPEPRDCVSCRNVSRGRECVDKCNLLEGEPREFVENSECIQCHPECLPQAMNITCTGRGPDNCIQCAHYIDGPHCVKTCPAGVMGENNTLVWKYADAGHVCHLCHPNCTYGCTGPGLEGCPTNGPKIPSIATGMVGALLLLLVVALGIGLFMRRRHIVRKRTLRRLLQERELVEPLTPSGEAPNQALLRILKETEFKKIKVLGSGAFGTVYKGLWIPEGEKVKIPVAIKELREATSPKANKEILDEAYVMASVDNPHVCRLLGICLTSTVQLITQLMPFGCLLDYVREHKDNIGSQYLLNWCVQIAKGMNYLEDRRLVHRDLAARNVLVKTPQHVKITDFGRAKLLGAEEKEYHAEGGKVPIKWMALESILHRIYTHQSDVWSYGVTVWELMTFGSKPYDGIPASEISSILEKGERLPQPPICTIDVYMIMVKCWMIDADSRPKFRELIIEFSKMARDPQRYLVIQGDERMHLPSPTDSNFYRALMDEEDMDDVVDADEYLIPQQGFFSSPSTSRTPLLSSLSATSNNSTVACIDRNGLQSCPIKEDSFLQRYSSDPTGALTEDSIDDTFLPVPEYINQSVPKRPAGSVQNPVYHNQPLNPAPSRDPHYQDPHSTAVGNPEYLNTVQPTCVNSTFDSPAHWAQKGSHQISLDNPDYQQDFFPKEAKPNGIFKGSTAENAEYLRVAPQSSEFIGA
How it was run: as §2

[13] = Homo sapiens, A-431, A-431 cells
[14] = BaF3 cells, EGFR DEL19-C797S, read-out: DEL19-C797S/BaF3 GI50
[15] = BaF3 cells, EGFR DEL19-T790-C797S, read-out: DEL19-T790-C797S/BaF3 GI50
[16] = BaF3 cells, EGFR L858R, read-out: L858R/BaF3 GI50
[17] = BaF3 cells, EGFR L858R-C797S, read-out: L858R-C797S/BaF3 GI50
[18] = BaF3 cells, EGFR L858R-T790-C797S, read-out: L858R-T790-C797S/BaF3 GI50
[19] = BaF3 cells, EGFR L858R-T790M, read-out: L858R-T790M/BaF3 GI50
[20] = EGFR DEL19-T790M, read-out: DEL19-T790M GI50

SMILES | GI50 [1] [nM] | IC50 [2] [nM] | GI50 [3, 13] [nM] | IC50 [4] [nM] | IC50 [5] [nM] | IC50 [6] [nM] | GI50 [7, 14] [nM] | GI50 [7, 15] [nM] | GI50 [7, 16] [nM] | GI50 [7, 17] [nM] | GI50 [7, 18] [nM] | GI50 [7, 19] [nM] | GI50 [7, 20] [nM] | IC50 [8] [nM] | IC50 [9] [nM] | IC50 [10] [nM] | IC50 [11] [nM] | IC50 [12] [nM] | GI50 ([3]; A-431 cells) [nM]
Cn1ncc2c1OCCN1CC3CCC(C3)(C1)n1c(nc3ccc(N4CCC(N5CCOCC5)C4)cc31)NC(=O)c1cc-2c(=O)n(C)c1 (single isomer, unassigned) [Example A104A] | 568 | > 5000 | 1940 | 1390 | > 5000 | > 5000 | 217 | 503 | 795 | 402 | 675 | 1000 | 473 | > 5000 | > 5000 | > 5000 | 1280 | 4680 | –
Cn1ncc2c1OCCN1CC3CCC(C3)(C1)n1c(nc3ccc(N4CCC(N5CCOCC5)C4)cc31)NC(=O)c1cc-2c(=O)n(C)c1 (single isomer, unassigned) [Example A104B] | 21 | 5.9 | – | 4.5 | 6.6 | 937 | 0.74 | 6.8 | 12 | 8.2 | 12 | 19 | 6.9 | 33 | 13 | 8.5 | 6.1 | 53 | 1010
CN1CC2CC1CN2c1ccc2nc3n(c2c1)C12CCC(CN(CCOc4c(cnn4C)-c4cc(cn(C)c4=O)C(=O)N3)C1)C2 (single isomer, unassigned) [Example A105B] | 13 | 1.7 | 354 | 1 | 1.5 | 110 | 0.76 | 3.5 | 7.9 | 3.8 | 7 | 15 | 4.9 | 3.8 | 1.8 | 2.2 | 1.6 | 7.3 | –
CN1CCN(C2CCN(c3ccc4nc5n(c4c3)C34CCC(CN(CCOc6c(cnn6C)-c6cc(cn(C)c6=O)C(=O)N5)C3)C4)CC2)CC1 (single isomer, unassigned) [Example A106A] | 418 | 2820 | – | 446 | > 5000 | > 5000 | 113 | 322 | 268 | 143 | 316 | 392 | 355 | > 5000 | > 5000 | > 5000 | 594 | 1750 | 2500
CN1CCN(C2CCN(c3ccc4nc5n(c4c3)C34CCC(CN(CCOc6c(cnn6C)-c6cc(cn(C)c6=O)C(=O)N5)C3)C4)CC2)CC1 (single isomer, unassigned) [Example A106B] | 7.6 | 2 | – | 1 | 1.4 | 4.1 | 0.79 | 1.4 | 1.1 | 2.2 | 3 | 1.1 | 1.9 | 2.2 | 2.2 | 2.2 | 1.2 | 1.8 | 732
CCN1CCN(c2ccc3nc4n(c3c2)C23CCC(CN(CCOc5c(cnn5C)-c5cc(cn(C)c5=O)C(=O)N4)C2)C3)CC1 (single isomer, unassigned) [Example A107A] | 238 | 2860 | – | 245 | > 5000 | > 5000 | 66 | 160 | 240 | 105 | 235 | 332 | 183 | 1040 | > 5000 | 4500 | 267 | 770 | 2420
CCN1CCN(c2ccc3nc4n(c3c2)C23CCC(CN(CCOc5c(cnn5C)-c5cc(cn(C)c5=O)C(=O)N4)C2)C3)CC1 (single isomer, unassigned) [Example A107B] | 5.2 | 2 | – | 0.79 | 2.1 | 20 | 0.63 | 1.1 | 1 | 2.4 | 1.5 | 4.1 | 1.5 | 1.9 | 2.7 | 1.8 | 1.8 | 3 | 267
CC(C)N1CCN(c2ccc3nc4n(c3c2)C23CCC(CN(CCOc5c(cnn5C)-c5cc(cn(C)c5=O)C(=O)N4)C2)C3)CC1 (single isomer, unassigned) [Example A108A] | 320 | 3170 | – | 268 | > 5000 | > 5000 | 84 | 204 | 202 | 123 | 223 | 369 | 227 | 942 | > 5000 | > 5000 | 293 | 577 | 1380
CC(C)N1CCN(c2ccc3nc4n(c3c2)C23CCC(CN(CCOc5c(cnn5C)-c5cc(cn(C)c5=O)C(=O)N4)C2)C3)CC1 (single isomer, unassigned) [Example A108B] | 4.6 | 1.4 | – | 0.77 | 1.1 | 7.7 | 0.67 | 1 | 1 | 1.1 | 1.2 | 3.9 | 1.3 | 1.5 | 1.3 | 1.7 | 1 | 1.9 | 320
